Experimental data as given in paper PMC10201669, “A novel coumarin derivative DBH2 inhibits proliferation and induces apoptosis of chronic myeloid leukemia cells” (Genes & Diseases, 2022).
Converted amounts (≈) assume the structure as drawn.

Tests used:
K562 cells [1] = assay: CCK-8 cell viability assay, K562 cells; assay type: cell-based, human; conditions: CCK-8, 48 h; for IC50: Homo sapiens, K562
Experimental: (§1) Human CML cell line K562 cells and human umbilical vein endothelial cells (HUVECs) were purchased from ATCC (Manassas, USA). Drug resistant K562 (K562R) cells were provided by the Chinese Academy of Medical Science Hematology Institute. The cells were cultured in RPMI-1640 medium containing 10% fetal bovine serum (FBS) in cell culture flasks under a humidified 5% CO2 and 95% air atmosphere at 37 °C. Bone marrow (BM) cells from mice or patients were cultured in DMEM/F12 medium supplemented with 20% FBS.
(§2) Cell viability was examined using the cell counting kit-8 (CCK-8) assay (YEASEN China). In brief, cells (1 × 10^4 cells/well) in confluent 96-well cell culture plates were treated with different concentrations of coumarin derivative (1, 5, 10, 25, 50, 100, 200, and 400 μg/mL) for 48 h. Then 10 μL CCK-8 reagents were added into every well for 2 h of incubation. Optical density (OD) was detected using the microplate reader (BioTek, Germany). The values were then fit into a non-linear regression curve and the IC50 was calculated using GraphPad Prism.

K562R cells = assay: CCK-8 cell viability assay, drug resistant K562 cells; assay type: cell-based, human; conditions: CCK-8, 48 h; for IC50: Homo sapiens, K-562R
Experimental: as §1, §2

HUVECs = assay: CCK-8 cell viability assay (cytotoxicity), HUVECs; assay type: cell-based, human; conditions: CCK-8, 48 h; for IC50: Homo sapiens, HUVEC
Experimental: as §1, §2

[2] = test system: CD34+ hematopoietic stem and progenitor cells (HSPCs); assay: CCK-8 cell viability assay (cytotoxicity), HSPCs; assay type: cell-based, human; conditions: CCK-8, 48 h; for IC50: Homo sapiens
Source text: (§3) Human CD34^+ HSCPs were obtained from the specimens of consenting healthy donors or CML patients at Xijing Hospital, and purified using Human Whole Blood CD34 Positive Selection Kit II (StemCell Technologies, China). Briefly, the human bone marrow was homogenized, and the top layering with Ficoll-Paque (GE Healthcare, USA) interphase containing immune cells and CD34^+ HSPCs was collected and washed with PBS, then CD34^+ HSPCs were purified according to the protocol of EasySep human CD34 positive selection kit (StemCell Technologies, China). CD34^+ cells were cultured in StemSpan-ACF medium II supplemented with 50 ng/mL human stem cell factor, 10 ng/mL thrombopoietin, 20 ng/mL FMS-related tyrosine kinase 3 ligand, 20 ng/mL interleukin-6 and 1% penicillin-streptomycin solution.
as §2

K562 cells [3] = assay: Annexin V-FITC/PI flow cytometry, apoptosis of K562 cells; assay type: cell-based, human; conditions: 50, 100, 200 μg/mL, 24 h, vs vehicle
Experimental: (§4) Apoptotic cells were quantified with an FITC Annexin V Apoptosis detection kit (Becton Dickinson Biosciences, USA) according to manufacturer’s protocol. Briefly, cells at 1 × 10^5 cells/mL were incubated with various concentrations (50, 100 and 200 μg/mL) of compound DBH2 for 24 h at 37 °C. Cells were harvested and re-suspended in the binding buffer, then stained with 5 μL Annexin V-FITC and 5 μL propidium iodide (PI) for 15 min at room temperature in the dark. The apoptotic index was immediately determined by FACSCalibur Flow Cytometer (Becton Dickinson Biosciences, CA). For the cell cycle, K562 cells were harvested and fixed in 75% ethanol overnight at 4 °C, then re-suspended in pre-cooling PBS containing 0.1 mg/mL RNase and 0.02 mg/mL PI for 30 min at 37 °C. After the treatment of compound DBH2 or 1% DMSO as vehicle control, the cell cycle was analyzed using the flow cytometry and Cell Quest software (BD Biosciences, USA).

K562 cells [4] = assay: Cell cycle distribution by flow cytometry, K562 cells; assay type: cell-based, human; conditions: K562, 100 μg/mL; vehicle 33.9%
Experimental: as §4

K562 cells [5] = assay: Transmission electron microscopy of K562 cells; assay type: cell-based, human; conditions: K562, 100 μg/mL, post 24 h
Experimental: CML cells were seeded and grown at […] in three flasks.

[6] = test system: bone marrow cells from SCL-tTA-BCR/ABL transgenic model mice; assay: Annexin V/PI apoptosis, bone marrow cells from SCL-tTA-BCR/ABL transgenic model mice; assay type: cell-based, mouse; conditions: 50, 100, 200 μg/mL
Experimental: as §1
as §4, with “For the cell cycle, K562 cells were harvested and fixed in 75% ethanol overnight at 4 °C, then re-suspended in pre-cooling PBS containing 0.1 mg/mL RNase and 0.02 mg/mL PI for 30 min at 37 °C.” left out, “USA). […]” for “USA).”

[7] = test system: bone marrow cells of recipients (BCR/ABL model mice); assay: Annexin V/PI apoptosis, bone marrow cells of BMT recipients, DBH2 with or without imatinib; assay type: cell-based, mouse; conditions: DBH2 at various concentrations with or without 1 μM imatinib
Experimental: (§5) The SCL-tTA-BCR/ABL transgenic model mice were used as donor, and sub-lethally irradiated (850 rad) wild type mice were use as receiver, once the bone marrow transplantation (BMT) was performed from the donor mice to the recipient mice, the CML-like model mice was established. […] Caspase-3 knock-out mice were kindly gifted from the lab of Professor Hua Han, the Fourth Military Medical University.

[8] = test system: CML-like model mice (recipients of SCL-tTA-BCR/ABL bone marrow); assay: Survival of CML-like model mice after bone marrow transplantation; assay type: in vivo, mouse; conditions: DBH2 100 mg/kg, 32 days with two-day interval post-BMT, intragastric
Experimental: as §5

[9] = test system: bone marrow cells from CML patients; assay: Annexin V/PI apoptosis, bone marrow cells from CML patients; assay type: cell-based, human
Experimental: as §1
The ages of three male CML patients […], all of them were newly diagnosed chronic phase, and before starting TKI therapy. Informed consent was obtained from all participants. This study adhered to the World Medical Association’s Declaration of Helsinki and its amendments for Ethical Human Research including confidentiality, privacy, and data management.
Apoptotic cells were quantified with an FITC Annexin V Apoptosis detection kit (Becton Dickinson Biosciences, USA) according to manufacturer’s protocol. […] The apoptotic index was immediately determined by FACSCalibur Flow Cytometer (Becton Dickinson Biosciences, CA). […] After the treatment of compound DBH2 or 1% DMSO as vehicle control, the cell cycle was analyzed using the flow cytometry and Cell Quest software (BD Biosciences, USA).

[10] = test system: CD34+ LSCs from CML patients; assay: Apoptosis of CD34+ LSCs from CML patients; assay type: cell-based, human; conditions: 100 μg/mL, 24 h
Source text: as §3
Apoptotic cells were quantified with an FITC Annexin V Apoptosis detection kit (Becton Dickinson Biosciences, USA) according to manufacturer’s protocol. Briefly, cells at 1 × 10^5 cells/mL were incubated with various concentrations (50, 100 and 200 μg/mL) of compound DBH2 for 24 h at 37 °C. […] The apoptotic index was immediately determined by FACSCalibur Flow Cytometer (Becton Dickinson Biosciences, CA). […] After the treatment of compound DBH2 or 1% DMSO as vehicle control, the cell cycle was analyzed using the flow cytometry and Cell Quest software (BD Biosciences, USA).

STAT3 = assay: Quantitative RT-PCR, STAT3 mRNA in K562 cells; assay type: cell-based, human; conditions: K562, 50, 100, 200 μg/mL
Experimental: (§6) RNA was extracted from cells using an RNA extraction kit according to the manufacturer protocol. After reverse transcription, the real-time PCR was performed for three independent experiments with a 7300 real-time PCR system (Applied Biosystems, USA) using SYBR Premix ExTaq (Takara, China). The relative expression of genes was calculated by the 2^-△△Ct method, with normalization to GAPDH levels. Amplified products were visualized with an Alpha Imager 2200 digital imaging system (Alpha Innotech, USA). The primers (forward and backward) used were depicted in Table S1.

STAT5 = assay: Quantitative RT-PCR, STAT5 mRNA in K562 cells; assay type: cell-based, human; conditions: K562, 50, 100, 200 μg/mL
Experimental: as §6

[11] = test system: bone marrow myeloid cells from wild type mice; assay: Annexin V/PI apoptosis, bone marrow myeloid cells from WT mice (Fig 5); assay type: cell-based, mouse; conditions: WT, 50, 100, 200 μg/mL, 24 h
Experimental: as §4
(§7) The SCL-tTA-BCR/ABL transgenic model mice were used as donor, and sub-lethally irradiated (850 rad) wild type mice were use as receiver, once the bone marrow transplantation (BMT) was performed from the donor mice to the recipient mice, the CML-like model mice was established. After 8 weeks, the bone marrow reconstitution was confirmed, and the effect of treatments to the survival rates of recipient mice was observed. […]

[12] = test system: bone marrow myeloid cells from caspase-3 gene knock-out mice; assay: Annexin V/PI apoptosis, bone marrow myeloid cells from caspase-3 knock-out mice; assay type: cell-based, mouse
Experimental: as §4, §7

PARP1 = assay: Western blot, PARP1 protein in K562 cells; assay type: cell-based, human; conditions: K562, 100 and 200 μg/mL, vs untreated control
Experimental: (§8) Cells were washed with Tris-buffered saline (TBS) and lysed by adding 100 μL of RIPA Lysis Buffer System containing protease inhibitors. Then, cell extraction was subjected to gel electrophoresis and transferred onto a polyvinylidene difluoride membrane (Millipore, Germany). After blocking with 3% BSA in TBS for 2 h, the membrane was probed with primary antibodies overnight at 4 °C, the antibody against PARP1 (Proteintech, USA) or ROCK1 proteins (Proteintech, USA) was diluted at 1:1000, and the antibody for GAPDH (Abcam, UK) was diluted at 1:1000. After secondary antibodies labeled with infrared dyes were added, the signals were visualized using the Odyssey Infrared Imaging System (Biosciences, USA).

ROCK1 = assay: Western blot, ROCK1 protein in K562 cells; assay type: cell-based, human; conditions: K562, 50, 100, 200 μg/mL
Experimental: as §8

[13] = test system: human cervical cancer HeLa cells; parameters: method as in PMID 18210747; conditions: G0/G1 arrest and apoptosis; cited from earlier work

Row | SMILES | IC50 (K562 cells [1]) | IC50 (K562R cells) | IC50 (HUVECs) | IC50 [2] | other results
1 | O=c1oc2ccccc2c(O)c1C(c1ccccc1)c1c(O)c2ccccc2oc1=O [DBH1, 3,3′-benzylidene-bis-(4-hydroxycoumarin)] | 31.3 µg/mL (≈ 75.8 µM) | 33.4 µg/mL (≈ 81 µM) | 85.7 µg/mL (≈ 208 µM) | 76.3 µg/mL (≈ 185 µM) | –
2 | O=c1oc2ccccc2c(O)c1C(c1cc(F)cc(F)c1)c1c(O)c2ccccc2oc1=O [DBH2, 3,3′-(3,5-difluorobenzylidene)-bis-(4-hydroxycoumarin)] | 36.3 µg/mL (≈ 81 µM) | 38.8 µg/mL (≈ 86.5 µM) | 232 µg/mL (≈ 518 µM) | 225 µg/mL (≈ 502 µM) | apoptosis in CML cells (K562) (K562 cells [3]): trigger significant apoptosis in CML cells with concentration-dependent responses; percentage of cells in the G2/M phase (K562 cells [4]): 41.3%; morphological observation (TEM) (K562 cells [5]): typical apoptotic-body in nuclear appeared; apoptosis in bone marrow cells from CML model mice compared to WT mice [6]: induce the remarkable apoptosis; number of apoptotic cells [7]: ascendant number of apoptotic cells; survival of treated mice [8]: remarkably prolonged about two times; apoptosis of bone marrow cells from CML patients ([9]; 50, 100 and 200 μg/mL): promoted the apoptosis of bone marrow cells from CML patients in dose-dependent manner; induced apoptosis in bone marrow cells from CML patients compared to its effects on CD34+ LSC ([9]; bone marrow cells vs CD34+ LSC): almost twice fold; CD34+ LSCs developed into the apoptotic process [10]: more than twice fold; expression of STAT3 mRNA (STAT3): inhibit the expression of STAT3 and STAT5 in a dose-dependent manner; expression of STAT5 mRNA (STAT5): inhibit the expression of STAT3 and STAT5 in a dose-dependent manner; Annexin V positive cells [11]: increasing number of Annexin V positive cells; DBH2-induced apoptosis compared to the cells from wild type mice ([12]; caspase-3 knock-out vs WT): significant less; Annexin V positive cells ([12]; caspase-3 knock-out, 50, 100, 200 μg/mL, 24 h): increasing number of Annexin V positive cells; expression of PARP1 protein (PARP1): up-regulate the expression of PARP1 significantly; expression of ROCK1 protein (ROCK1): up-regulated the expression of ROCK1 in dose-dependent manner
3 | O=c1oc2ccccc2c(O)c1C(c1cc(Cl)cc(Cl)c1)c1c(O)c2ccccc2oc1=O [DBH3, 3,3′-(3,5-dichlorobenzylidene)-bis-(4-hydroxycoumarin)] | 36.5 µg/mL (≈ 75.8 µM) | 45.7 µg/mL (≈ 95 µM) | 52.3 µg/mL (≈ 109 µM) | 72.4 µg/mL (≈ 150 µM) | –
4 | O=c1oc2ccccc2c(O)c1C(c1cc(Br)cc(Br)c1)c1c(O)c2ccccc2oc1=O [DBH4, 3,3′-(3,5-dibromobenzylidene)-bis-(4-hydroxycoumarin)] | 36.5 µg/mL (≈ 64.1 µM) | 39.9 µg/mL (≈ 69.9 µM) | 88.7 µg/mL (≈ 155 µM) | 83.1 µg/mL (≈ 146 µM) | –
5 | COc1cc(OC)cc(C(c2c(O)c3ccccc3oc2=O)c2c(O)c3ccccc3oc2=O)c1 [DBH5, 3,3′-(3,5-dimethoxybenzylidene)-bis-(4-hydroxycoumarin)] | 30.4 µg/mL (≈ 64.5 µM) | 34.4 µg/mL (≈ 72.7 µM) | 50.3 µg/mL (≈ 106 µM) | 46.4 µg/mL (≈ 98.2 µM) | –
6 | O=c1oc2ccccc2c(O)c1C(c1cc(C(F)(F)F)cc(C(F)(F)F)c1)c1c(O)c2ccccc2oc1=O [DBH6, 3,3′-(3,5-ditrifluoromethylbenzylidene)-bis-(4-hydroxycoum-arin)] | – | – | – | – | IC50, K562 cells (K562 cells [1]): 31.32 µg/mL (≈ 57.1 µM); IC50, K562 R cells (K562R cells): 35.68 µg/mL (≈ 65.1 µM); IC50, HUVECs (HUVECs): 72.42 µg/mL (≈ 132 µM); IC50, HSPCs [2]: 67.75 µg/mL (≈ 124 µM)
7 | COc1cccc2c1C(=O)c1c(O)c3c(c(O)c1C2=O)C[C@@](O)(C(=O)CO)C[C@@H]3O[C@H]1C[C@H](N)[C@H](O)[C@H](C)O1 [Doxorubicin, reference compound] | 16.4 µg/mL (≈ 30.2 µM) | 24.1 µg/mL (≈ 44.4 µM) | 8.76 µg/mL (≈ 16.1 µM) | 8.04 µg/mL (≈ 14.8 µM) | –
8 | O=c1ccc2ccccc2o1 [coumarin] | – | – | – | – | IC50 [13]: 54.2 µM
